In brackets after ≈: the same amount, converted by molar mass. Numbered stars: 1 amine (or outer) side, 2 acyl side, 3 side chain; on linkers, the order of the positions; unused ones are H or OH. Peptide text beside a SMILES is read from it. * marks the point of attachment. C20 diacid = O=C(O)CCCCCCCCCCCCCCCCCCC(=O)*; γGlu = O=C(O)[C@H](CCC(=O)[*:2])N[*:1]

The values below come from patent US9593149B2, “Amylin and calcitonin receptor agonist” (Novo Nordisk A/S, priority 2014, dated 2017).

The series can be described thus: Assay (IV) determination of solubility. The format is physicochemical. On the procedure: Assay (IV)—Determination of Solubility
The mimylin peptide was dissolved in water at ˜500 nmol/ml and mixed 1:1 with a series of buffers (100 mM glycylglycine pH 3.0, 100 mM glycylglycine pH 4.0, 100 mM glycylglycine pH 5.0, 100 mM bistrispropane pH 6.0, 100 mM bistrispropane pH 6.5, 100 mM bistrispropane pH 7.0, 100 mM bistrispropane pH 7.5, 100 mM bistrispropane pH 8.0).

Take `CC(C)C[C@H](NC(=O)[C@H](C)NC(=O)[C@H](C)NC(=O)[C@@H](NC(=O)[C@H](CO)NC(=O)[C@H](CC(C)C)NC(=O)[C@H](CCC(=O)O)NC(=O)[C@H](CO)NC(=O)[C@H](C)N)[C@@H](C)O)C(=O)NCC(=O)N[C@@H](CCCNC(=N)N)C(=O)N[C@@H](CC(C)C)C(=O)N[C@@H](CO)C(=O)N[C@@H](C)C(=O)N[C@@H](CCC(=O)O)C(=O)N[C@@H](CC(C)C)C(=O)N[C@@H](Cc1cnc[nH]1)C(=O)N[C@@H](CCC(=O)O)C(=O)N[C@@H](CC(C)C)C(=O)N[C@@H](C)C(=O)N[C@H](C(=O)N[C@@H](CC(C)C)C(=O)N1CCC[C@H]1C(=O)N[C@@H](CCCNC(=N)N)C(=O)N[C@H](C(=O)N[C@@H](CCCCNC(=O)CC[C@H](NC(=O)CCCCCCCCCCCCCCCCCCC(=O)O)C(=O)O)C(=O)N[C@H](C(=O)NCC(=O)N[C@@H](CO)C(=O)NCC(=O)N[C@@H](CO)C(=O)N1CCC[C@H]1C(N)=O)[C@@H](C)O)[C@@H](C)O)[C@@H](C)O` [compound 55, [des1, 27K(C20 diacid-gGlu), 30S, 31G]mimylin]: the Solubility entry (pH 3.0) is reported as “≧200 μM”; the Solubility entry (pH 4.0) is given as “≧200 μM”; the Solubility result (pH 5.0) is “≧200 μM”; the Solubility result (pH 6.0) was “≧200 μM”; the Solubility result (pH 6.5) is on record as “≧200 μM”; the Solubility result (pH 7.0) is “≧200 μM”. For the same compound, the Solubility result by setting is: (pH 7.5) “≧200 μM”; (pH 8.0) “≧200 μM”.

In the case of `CC(C)C[C@H](NC(=O)[C@H](C)NC(=O)[C@H](C)NC(=O)[C@@H](NC(=O)[C@H](CO)NC(=O)[C@H](CC(C)C)NC(=O)[C@H](CCC(=O)O)NC(=O)[C@H](CO)NC(=O)[C@H](C)NC(=O)CC[C@H](NC(=O)CCCCCCCCCCCCCCCCCCC(=O)O)C(=O)O)[C@@H](C)O)C(=O)NCC(=O)N[C@@H](CCCNC(=N)N)C(=O)N[C@@H](CC(C)C)C(=O)N[C@@H](CO)C(=O)N[C@@H](C)C(=O)N[C@@H](CCC(=O)O)C(=O)N[C@@H](CC(C)C)C(=O)N[C@@H](Cc1cnc[nH]1)C(=O)N[C@@H](CCC(=O)O)C(=O)N[C@@H](CC(C)C)C(=O)N[C@@H](C)C(=O)N[C@H](C(=O)N[C@@H](CC(C)C)C(=O)N1CCC[C@H]1C(=O)N[C@@H](CCCNC(=N)N)C(=O)N[C@H](C(=O)N[C@@H](CCC(=O)O)C(=O)N[C@H](C(=O)NCC(=O)N[C@@H](CO)C(=O)NCC(=O)N[C@@H](CO)C(=O)N[C@@H](Cc1ccccc1)C(N)=O)[C@@H](C)O)[C@@H](C)O)[C@@H](C)O` [compound 61, [N-terminal(C20 diacid-gGlu), des1, 30S, 31G, 33F]mimylin] ({C20 diacid-γGlu}-ASELSTAALGRLSAELHELATLPRTETGSGSF-NH2), the Solubility result is, setting by setting: (pH 3.0) “≧200 μM”; (pH 4.0) “≧200 μM”; (pH 6.0) “≧200 μM”; (pH 6.5) “≧200 μM”; (pH 7.0) “≧200 μM”; (pH 7.5) “≧200 μM”. Also, the Solubility entry (pH 8.0) was “≧200 μM”. The compound further came in with a solubility at 18 h (pH 5.0) of 101 µM (≈ 376 µg/mL).

One may read the solubility as how much of the substance goes into solution per volume.
